Measured values published in US20030158529A1 (priority 2001, published 2003).
Read-outs that look alike come from different tables or passages of the source.

What was measured:
Type in all cases: cell-based, Staphylococcus aureus
S. aureus (MN8) = system: S. aureus (MN8)
S. aureus FRI-1187 = system: S. aureus FRI-1187
S. aureus FRI-1169 = system: S. aureus FRI-1169

Compound | CFU/mL (S. aureus (MN8)) [CFU/mL] | ELISA: TSST-1 ng/OD unit (S. aureus (MN8)) [ng/OD unit] | Optical Density 600 nm (S. aureus (MN8)) | Reduction of Toxin (%) (S. aureus (MN8)) | ELISA: TSST-1 ng/OD unit (S. aureus (MN8); S. aureus MN8, 2 μg/mL test compound, 24 hours) [ng/OD unit] | Optical Density 600 nm (S. aureus (MN8); S. aureus MN8, 2 μg/mL test compound, 24 hours, 35° C.) | CFU/mL (S. aureus FRI-1187) [CFU/mL] | Optical Density 600 nm (S. aureus FRI-1187) | ELISA: TSST-1 ng/OD unit (S. aureus FRI-1187; S. aureus FRI-1187, 0.5 ug/mL) [ng/OD unit] | CFU/mL (S. aureus FRI-1169) [CFU/mL] | Optical Density 600 nm (S. aureus FRI-1169) | ELISA: TSST-1 ng/OD unit (S. aureus FRI-1169; S. aureus FRI-1169, 0.5 μg/mL) [ng/OD unit] | ELISA: TSST-1 ng/OD unit (S. aureus (MN8); S. aureus MN8, 0.01 μg/mL test compound, 24 hours) [ng/OD unit] | Optical Density 600 nm (S. aureus (MN8); S. aureus MN8, 0.01 μg/mL test compound, 24 hours, 35° C.)
Oc1ccc(Cc2ccccc2)cc1 [4-Hydroxydiphenylmethane, 4-hydroxydiphenyl methane] | 1.1E+08 | 785 | 0.581 | – | – | – | – | – | – | – | – | – | – | –
Oc1c(Cl)cc(Cl)c(Cl)c1Cc1c(O)c(Cl)cc(Cl)c1Cl [Hexachlorophene, hexachlorophene] | 3.7E+08 | – | – | 68 | 330 | 0.350 | – | – | – | – | – | – | – | –
Oc1cc(Cl)ccc1Oc1ccc(Cl)cc1Cl [Triclosan, triclosan] | 1.0E+08 | – | – | 88 | – | – | 1.56E+09 | 0.156 | 95 | 1.50E+09 | 0.625 | 40 | 129 | 0.271
